Ki and IC50 data for 11 molecules are collected here from ChEMBL document CHEMBL1138742, “Potent and orally bioavailable non-peptide antagonists at the human bradykinin B(1) receptor based on a 2-alkylamino-5-sulfamoylbenzamide core” (J Med Chem, 2004).

For assay [1], the target named is T1, B1 bradykinin receptor (Homo sapiens, UniProt P46663).
T1 sequence (P46663 whole entry): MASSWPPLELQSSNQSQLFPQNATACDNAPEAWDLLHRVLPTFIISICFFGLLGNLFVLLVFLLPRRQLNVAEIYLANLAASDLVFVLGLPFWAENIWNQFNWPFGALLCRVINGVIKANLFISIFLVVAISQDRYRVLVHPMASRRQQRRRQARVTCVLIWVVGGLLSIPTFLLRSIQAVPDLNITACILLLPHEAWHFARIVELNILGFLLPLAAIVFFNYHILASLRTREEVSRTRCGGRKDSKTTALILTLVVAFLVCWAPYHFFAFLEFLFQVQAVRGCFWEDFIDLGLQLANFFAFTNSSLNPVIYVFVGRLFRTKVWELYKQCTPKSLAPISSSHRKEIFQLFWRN
The assay is described as follows: Binding affinity for Bradykinin receptor B1 expressed in HEK293 cells. Type of assay: cell-based.

The target of another assay is T2, B2 bradykinin receptor (Homo sapiens, UniProt P30411).
T2 sequence (P30411 whole entry): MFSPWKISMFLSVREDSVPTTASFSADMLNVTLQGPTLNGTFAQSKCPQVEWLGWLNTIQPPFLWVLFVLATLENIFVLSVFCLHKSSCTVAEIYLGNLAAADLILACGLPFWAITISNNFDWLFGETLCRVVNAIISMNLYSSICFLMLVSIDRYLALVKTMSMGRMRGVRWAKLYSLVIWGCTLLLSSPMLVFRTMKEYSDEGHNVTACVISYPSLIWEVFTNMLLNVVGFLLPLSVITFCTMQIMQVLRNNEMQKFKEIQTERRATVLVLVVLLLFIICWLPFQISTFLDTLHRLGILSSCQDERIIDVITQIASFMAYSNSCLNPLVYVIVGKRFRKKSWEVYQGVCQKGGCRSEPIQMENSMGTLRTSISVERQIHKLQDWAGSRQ
The assay is described as follows: Binding affinity for Bradykinin receptor B2 expressed in COS7 cells. Type of assay: cell-based, COS-7.

Assay [2] deals with T1, B1 bradykinin receptor. Put plainly: Inhibition of Bradykinin receptor B1 expressed in HEK293 cells. The assay is classed as cell-based.

Bounds are passed on as bounds.

On to `CC(=O)c1cc(S(=O)(=O)NCCC(=O)N(CCCN(C)C)CCCN(C)C)ccc1NCC(c1ccccc1)c1ccccc1`, for which, at B1 bradykinin receptor [1], affinity was put at a Ki of 130 nM.

For `CN(C)CCCN(CCCN(C)C)C(=O)C1CCN(S(=O)(=O)c2ccc(NCC(c3ccccc3)c3ccccc3)c([N+](=O)[O-])c2)CC1`, on B1 bradykinin receptor [1], the affinity, expressed as Ki, was 10 nM.

On to `CN1CCN(C(=O)C2CCN(S(=O)(=O)c3ccc(NCC(c4ccccc4)c4ccccc4)c(C(=O)N4CCOCC4)c3)CC2)CC1`, for which, at B1 bradykinin receptor [1], the affinity corresponds to a Ki of 10 nM.

On to `CN(C)CCCN(CCCN(C)C)C(=O)CCNS(=O)(=O)c1ccc(NCC(c2ccccc2)c2ccccc2)c([N+](=O)[O-])c1`, for which the inhibitory constant (Ki) on B1 bradykinin receptor [1] stood at 140 nM.

Take `CN(C)CCCN(CCCN(C)C)S(=O)(=O)c1ccc(NC(c2ccccc2)c2ccccc2)c([N+](=O)[O-])c1`: the Ki was 3000 nM at B1 bradykinin receptor [1] and 1400 nM on B2 bradykinin receptor. Moreover, 6200 nM corresponded to half-maximal inhibition against B1 bradykinin receptor [2] (IC50).

On to `CN(C)CCCN(CCCN(C)C)C(=O)CCNS(=O)(=O)c1ccc(NCC(c2ccccc2)c2ccccc2)c(Cl)c1`, for which, at B1 bradykinin receptor [1], the inhibition constant Ki was greater than 1000 nM.

On to `CN(C)CCCN(CCCN(C)C)C(=O)C1CCN(S(=O)(=O)c2ccc(NCC(c3ccccc3)c3ccccc3)c(C(=O)N3CCOCC3)c2)CC1`, for which the Ki at B1 bradykinin receptor [1] was 1 nM.

For `CN(C)CCCN(CCCN(C)C)C(=O)CCNS(=O)(=O)c1ccc(NCC(c2ccccc2)c2ccccc2)c(C(=O)N2CCOCC2)c1`, the Ki on B1 bradykinin receptor [1] was 10 nM.

At B1 bradykinin receptor [1], `CN(C)CCCN(CCCN(C)C)S(=O)(=O)c1ccc(NCC(c2ccccc2)c2ccccc2)c([N+](=O)[O-])c1` yielded a Ki of 230 nM.

As to `CC(C)N1CCN(C(=O)C2CCN(S(=O)(=O)c3ccc(NCC(c4ccccc4)c4ccccc4)c(C(=O)N4CCOCC4)c3)CC2)CC1`, the Ki at B1 bradykinin receptor [1] came to 10 nM.

On to `CN(C)CCCN(CCCN(C)C)S(=O)(=O)c1ccc(NC(Cc2ccccc2)Cc2ccccc2)c([N+](=O)[O-])c1`, for which, at B1 bradykinin receptor [1], the inhibitory constant (Ki) was determined as 250 nM.

By Ki is commonly meant a dissociation constant, usually derived from enzyme kinetics or from competition with a known ligand. Lower therefore signals a stronger hold on the target. The term IC50 denotes the midpoint of a concentration-inhibition curve. A lower IC50 goes with inhibition by little substance.
